Data taken from PubChem BioAssay AID2060493 (Molecular Pharmacology Branch, DTP, NCI, 2025).

System: 616215-338-R-J1-PDC tumor spheroids, viability
Assay: Anticancer human tumor 616215-338-R-J1-PDC patient-derived colon adenocarcinoma cell line growth inhibition [GQUAD]
Conditions: spheroids with HUVEC and MSC; for IC50: curve of first compound; for viability, T/C: stronger effect = lower value
How it was run: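 Multi-cell-type spheroids of tumor cells with HUVEC and mesenchymal stem cells, treated with drug combinations. Concentrations descend in half-log steps from near clinical Cmax, or from 10 microM where Cmax is unknown; viability read-out.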

[1] = second compound 0.0316 µM, first compound 0.0316 µM
[2] = second compound 0.0316 µM, first compound 0.1 µM
[3] = second compound 0.0316 µM, first compound 0.316 µM
[4] = second compound 0.0316 µM, first compound 1 µM
[5] = second compound 0.0316 µM, first compound 3.16 µM
[6] = second compound 0.0316 µM, first compound 10 µM
[7] = second compound 0.1 µM, first compound 0.0316 µM
[8] = second compound 0.1 µM, first compound 0.1 µM
[9] = second compound 0.1 µM, first compound 0.316 µM
[10] = second compound 0.1 µM, first compound 1 µM
[11] = second compound 0.1 µM, first compound 3.16 µM
[12] = second compound 0.1 µM, first compound 10 µM
[13] = second compound 0.316 µM, first compound 0.0316 µM
[14] = second compound 0.316 µM, first compound 0.1 µM
[15] = second compound 0.316 µM, first compound 0.316 µM
[16] = second compound 0.316 µM, first compound 1 µM
[17] = second compound 0.316 µM, first compound 3.16 µM
[18] = second compound 0.316 µM, first compound 10 µM
[19] = second compound 1 µM, first compound 0.0316 µM
[20] = second compound 1 µM, first compound 0.1 µM
[21] = second compound 1 µM, first compound 0.316 µM
[22] = second compound 1 µM, first compound 1 µM
[23] = second compound 1 µM, first compound 3.16 µM
[24] = second compound 1 µM, first compound 10 µM
[25] = second compound 3.16 µM, first compound 0.0316 µM
[26] = second compound 3.16 µM, first compound 0.1 µM
[27] = second compound 3.16 µM, first compound 0.316 µM
[28] = second compound 3.16 µM, first compound 1 µM
[29] = second compound 3.16 µM, first compound 3.16 µM
[30] = second compound 3.16 µM, first compound 10 µM
[31] = second compound 10 µM, first compound 0.0316 µM
[32] = second compound 10 µM, first compound 0.1 µM
[33] = second compound 10 µM, first compound 0.316 µM
[34] = second compound 10 µM, first compound 1 µM
[35] = second compound 10 µM, first compound 3.16 µM
[36] = second compound 10 µM, first compound 10 µM
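Also: spheroids exposed to agents for 7 days before readout.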
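For viability, T/C in this document: percent viability relative to DMSO vehicle control wells taken as 100%.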

C#Cc1c(F)ccc2cc(O)cc(-c3ncc4c(N5CC6CCC(C5)N6)nc(OCC56CCCN5CC(F)C6)nc4c3F)c12 (stereo unspecified) + Cc1cnc(CNC(=O)c2c(=O)c3ccc(N4CCCN(C)CC4)nc3n3c2sc2ccccc23)cn1
IC50 (second compound 0.0316 µM): 4.51 µM
IC50 (second compound 0.1 µM): 0.422 µM
IC50 (second compound 0.316 µM): < 0.0316 µM
IC50 (second compound 1 µM): < 0.0316 µM
IC50 (second compound 3.16 µM): 0.0436 µM
IC50 (second compound 10 µM): < 0.0316 µM
viability, T/C [1]: 98.8%
viability, T/C [2]: 88.4%
viability, T/C [3]: 103%
viability, T/C [4]: 67.6%
viability, T/C [5]: 63.8%
viability, T/C [6]: 27.8%
viability, T/C [7]: 64.3%
viability, T/C [8]: 64.2%
viability, T/C [9]: 51.9%
viability, T/C [10]: 40.2%
viability, T/C [11]: 28.7%
viability, T/C [12]: 22.1%
viability, T/C [13]: 38.8%
viability, T/C [14]: 40.5%
viability, T/C [15]: 48.3%
viability, T/C [16]: 40.8%
viability, T/C [17]: 39.2%
viability, T/C [18]: 19%
viability, T/C [19]: 34.7%
viability, T/C [20]: 27.1%
viability, T/C [21]: 40.9%
viability, T/C [22]: 19.8%
viability, T/C [23]: 20.8%
viability, T/C [24]: 20.4%
viability, T/C [25]: 58.3%
viability, T/C [26]: 27.7%
viability, T/C [27]: 24.1%
viability, T/C [28]: 15.6%
viability, T/C [29]: 18.8%
viability, T/C [30]: 7.2%
viability, T/C [31]: 21%
viability, T/C [32]: 18.5%
viability, T/C [33]: 22.3%
viability, T/C [34]: 16.8%
viability, T/C [35]: 14.8%
viability, T/C [36]: 14.6%

CC(C)n1c(=O)n(C)c2cnc3cc(F)c(-c4ccc(OCCCN5CCCCC5)nc4)cc3c21 + Cc1[nH]c2ccc(F)cc2c1-c1nc2c3cccnc3c3ncccc3c2[nH]1
IC50 (second compound 0.0316 µM): > 10 µM
IC50 (second compound 0.1 µM): > 10 µM
IC50 (second compound 0.316 µM): > 10 µM
IC50 (second compound 1 µM): > 10 µM
IC50 (second compound 3.16 µM): > 10 µM
IC50 (second compound 10 µM): > 10 µM
viability, T/C [1]: 102%
viability, T/C [2]: 98.8%
viability, T/C [3]: 97.5%
viability, T/C [4]: 101%
viability, T/C [5]: 117%
viability, T/C [6]: 70.9%
viability, T/C [7]: 103%
viability, T/C [8]: 99.6%
viability, T/C [9]: 100%
viability, T/C [10]: 107%
viability, T/C [11]: 112%
viability, T/C [12]: 85.7%
viability, T/C [13]: 107%
viability, T/C [14]: 99.3%
viability, T/C [15]: 100%
viability, T/C [16]: 106%
viability, T/C [17]: 100%
viability, T/C [18]: 72.9%
viability, T/C [19]: 99%
viability, T/C [20]: 116%
viability, T/C [21]: 97.5%
viability, T/C [22]: 93.6%
viability, T/C [23]: 101%
viability, T/C [24]: 95.7%
viability, T/C [25]: 99%
viability, T/C [26]: 93.8%
viability, T/C [27]: 87.3%
viability, T/C [28]: 98.7%
viability, T/C [29]: 104%
viability, T/C [30]: 57.4%
viability, T/C [31]: 94.5%
viability, T/C [32]: 94.7%
viability, T/C [33]: 99.1%
viability, T/C [34]: 91.2%
viability, T/C [35]: 107%
viability, T/C [36]: 87%

C#Cc1c(F)ccc2cc(O)cc(-c3ncc4c(N5CC6CCC(C5)N6)nc(OCC56CCCN5CC(F)C6)nc4c3F)c12 (stereo unspecified) + CN(C)c1ccc(Nc2c3ccc(NC(=O)CCN4CCCC4)cc3nc3cc(NC(=O)CCN4CCCC4)ccc23)cc1
IC50 (second compound 0.0316 µM): > 10 µM
IC50 (second compound 0.1 µM): 9.07 µM
IC50 (second compound 0.316 µM): > 10 µM
IC50 (second compound 1 µM): 9.22 µM
IC50 (second compound 3.16 µM): 8.57 µM
IC50 (second compound 10 µM): 3.02 µM
viability, T/C [1]: 91.1%
viability, T/C [2]: 103%
viability, T/C [3]: 102%
viability, T/C [4]: 113%
viability, T/C [5]: 108%
viability, T/C [6]: 61.4%
viability, T/C [7]: 103%
viability, T/C [8]: 105%
viability, T/C [9]: 111%
viability, T/C [10]: 111%
viability, T/C [11]: 105%
viability, T/C [12]: 44.9%
viability, T/C [13]: 106%
viability, T/C [14]: 109%
viability, T/C [15]: 110%
viability, T/C [16]: 105%
viability, T/C [17]: 90.4%
viability, T/C [18]: 64.3%
viability, T/C [19]: 109%
viability, T/C [20]: 100%
viability, T/C [21]: 106%
viability, T/C [22]: 105%
viability, T/C [23]: 98%
viability, T/C [24]: 46.3%
viability, T/C [25]: 109%
viability, T/C [26]: 86.8%
viability, T/C [27]: 100%
viability, T/C [28]: 93.5%
viability, T/C [29]: 106%
viability, T/C [30]: 42.3%
viability, T/C [31]: 99.4%
viability, T/C [32]: 79.6%
viability, T/C [33]: 94.2%
viability, T/C [34]: 67.5%
viability, T/C [35]: 50.1%
viability, T/C [36]: 22.4%
